{
  "source": "patent US5082845A",
  "about": "“Therapeutic xanthine derivatives for the treatment of peptic ulcer disease” (Hoechst Japan Limited, priority 1988, dated 1992)",
  "data": [
    {"test_system": "stress-induced gastric ulcer in rats", "test": "Protective effect on gastric ulcer induced by restraint plus water-immersion stress in rats", "format": "in vivo, male Sprague-Dawley rats", "settings": "10 mg/kg po, mean ± S.E., series with control (distilled water) 19.7 ± 2.9 mm", "experimental": "(§1) 1.1 Protective Effect on Gastric Ulcer Induced by Restraint Plus Water-Immersion Stress in Rats\n(§2) Male Sprague-Dawley rats weighing 250-300 g were used in groups of 5-34. The animals were given the compounds by the oral route after fasting overnight. Immediately, under light ether anesthesia they were placed in a restraint box and immersed in water at 20° C. for 6 or 7 hours. Then the animals were sacrificed, and their stomachs were isolated, inflated with 4 ml of 1% formalin for 10 minutes, opened along the greater curvature, and examined for the presence of gastric erosions. The longest axis of each erosion induced on the glandular section of the stomach was measured, and the sum of the lengths was defined as an ulcer index.", "units": {"Ulcer index": "mm"}, "values": [
      {"smiles": "CC(=O)Cn1cnc2c1c(=O)n(CCCCC(C)O)c(=O)n2C", "note": "(stereo not shown) [Compound 23, 1-(5-Hydroxyhexyl)-3-methyl-7-(2-oxopropyl)-xanthine]", "Ulcer index": "15.8 ± 4.6"},
      {"smiles": "CCCn1c(=O)c2c(ncn2CCCCC(C)O)n(C)c1=O", "note": "(stereo not shown) [Compound 15]", "Ulcer index": "2.2 ± 0.9"},
      {"smiles": "CCCCn1c(=O)c2c(ncn2CCCCC(O)CO)n(CC)c1=O", "note": "(stereo not shown) [Compound 3]", "Ulcer index": "6.0 ± 1.9"},
      {"smiles": "CCn1c(=O)c2c(ncn2CCCCC(C)=O)n(C)c1=O", "note": "[Compound 22]", "Ulcer index": "8.0 ± 4.2"},
      {"smiles": "C=CCn1c(=O)c2c(ncn2CCCCC(C)O)n(C)c1=O", "note": "(stereo not shown) [Compound 18, 1-Allyl-7-(5-hydroxyhexyl)-3-methylxanthine]", "Ulcer index": "15.3 ± 2.1"},
      {"smiles": "CC(=O)CCCCn1cnc2c1c(=O)n(CC(C)=O)c(=O)n2C", "note": "[Compound 24, 3-Methyl-7-(5-oxohexyl)-1-(2-oxopropyl)-xanthine]", "Ulcer index": "10.3 ± 3.5"},
      {"smiles": "CCCn1c(=O)c2c(ncn2CCCCC(O)CO)n(CC)c1=O", "note": "(stereo not shown) [Compound 1]", "Ulcer index": "2.7 ± 0.9"},
      {"smiles": "CC(=O)CCCCn1c(=O)c2c(ncn2CC(C)O)n(C)c1=O", "note": "(stereo not shown) [Compound 20]", "Ulcer index": "6.9 ± 2.1"}
    ]},
    {"test_system": "stress-induced gastric ulcer in rats", "test": "Protective effect on gastric ulcer induced by restraint plus water-immersion stress in rats", "format": "in vivo, male Sprague-Dawley rats", "settings": "10 mg/kg po, mean ± S.E., series with control (distilled water) 26.2 ± 1.6 mm", "experimental": "as §1, §2", "units": {"Ulcer index": "mm"}, "values": [
      {"smiles": "CC(=O)Cn1c(=O)c2c(ncn2CCCCC(C)O)n(C)c1=O", "note": "(stereo not shown) [Compound 19, 7-(5-Hydroxyhexyl)-3-methyl-1-(2-oxopropyl)-xanthine]", "Ulcer index": "15.0 ± 2.4"},
      {"smiles": "CCCn1c(=O)n(CCCCC(C)=O)c(=O)c2c1ncn2CCCCC(O)CO", "note": "(stereo not shown) [Compound 9, 7-(5,6-Dihydroxyhexyl)-1-(5-oxohexyl)-3-n-propylxanthine]", "Ulcer index": "20.2 ± 5.8"},
      {"smiles": "CCn1c(=O)n(C(C)C)c(=O)c2c1ncn2CCCCC(O)CO", "note": "(stereo not shown) [Compound 2]", "Ulcer index": "11.5 ± 2.1"},
      {"smiles": "CC(=O)CCCCn1c(=O)c2c(ncn2CCCCC(O)CO)n(C)c1=O", "note": "(stereo not shown) [Compound 11, 7-(5,6-dihydroxyhexyl)-3-methyl-1-(5-oxohexyl)-xanthine]", "Ulcer index": "13.8 ± 1.7"}
    ]},
    {"test_system": "stress-induced gastric ulcer in rats", "test": "Protective effect on gastric ulcer induced by restraint plus water-immersion stress in rats", "format": "in vivo, male Sprague-Dawley rats", "settings": "Rattus norvegicus, stress-induced ulcer, 10 mg/kg po, series with control 19.7 ± 2.9 mm", "experimental": "as §1, §2", "units": {"inhibition in vivo at 10 mg/kg": "%"}, "values": [
      {"smiles": "CC(=O)Cn1cnc2c1c(=O)n(CCCCC(C)O)c(=O)n2C", "note": "(stereo not shown) [Compound 23, 1-(5-Hydroxyhexyl)-3-methyl-7-(2-oxopropyl)-xanthine]", "inhibition in vivo at 10 mg/kg": 19.8},
      {"smiles": "CCCn1c(=O)c2c(ncn2CCCCC(C)O)n(C)c1=O", "note": "(stereo not shown) [Compound 15]", "inhibition in vivo at 10 mg/kg": 88.9},
      {"smiles": "CCCCn1c(=O)c2c(ncn2CCCCC(O)CO)n(CC)c1=O", "note": "(stereo not shown) [Compound 3]", "inhibition in vivo at 10 mg/kg": 69.6},
      {"smiles": "CCn1c(=O)c2c(ncn2CCCCC(C)=O)n(C)c1=O", "note": "[Compound 22]", "inhibition in vivo at 10 mg/kg": 59},
      {"smiles": "C=CCn1c(=O)c2c(ncn2CCCCC(C)O)n(C)c1=O", "note": "(stereo not shown) [Compound 18, 1-Allyl-7-(5-hydroxyhexyl)-3-methylxanthine]", "inhibition in vivo at 10 mg/kg": 22.3},
      {"smiles": "CC(=O)CCCCn1cnc2c1c(=O)n(CC(C)=O)c(=O)n2C", "note": "[Compound 24, 3-Methyl-7-(5-oxohexyl)-1-(2-oxopropyl)-xanthine]", "inhibition in vivo at 10 mg/kg": 47.7},
      {"smiles": "CCCn1c(=O)c2c(ncn2CCCCC(O)CO)n(CC)c1=O", "note": "(stereo not shown) [Compound 1]", "inhibition in vivo at 10 mg/kg": 86.3},
      {"smiles": "CC(=O)CCCCn1c(=O)c2c(ncn2CC(C)O)n(C)c1=O", "note": "(stereo not shown) [Compound 20]", "inhibition in vivo at 10 mg/kg": 65}
    ]},
    {"test_system": "stress-induced gastric ulcer in rats", "test": "Protective effect on gastric ulcer induced by restraint plus water-immersion stress in rats", "format": "in vivo, male Sprague-Dawley rats", "settings": "Rattus norvegicus, stress-induced ulcer, 10 mg/kg po, series with control 26.2 ± 1.6 mm", "experimental": "as §1, §2", "units": {"inhibition in vivo at 10 mg/kg": "%"}, "values": [
      {"smiles": "CC(=O)Cn1c(=O)c2c(ncn2CCCCC(C)O)n(C)c1=O", "note": "(stereo not shown) [Compound 19, 7-(5-Hydroxyhexyl)-3-methyl-1-(2-oxopropyl)-xanthine]", "inhibition in vivo at 10 mg/kg": 42.8},
      {"smiles": "CCCn1c(=O)n(CCCCC(C)=O)c(=O)c2c1ncn2CCCCC(O)CO", "note": "(stereo not shown) [Compound 9, 7-(5,6-Dihydroxyhexyl)-1-(5-oxohexyl)-3-n-propylxanthine]", "inhibition in vivo at 10 mg/kg": 22.9},
      {"smiles": "CCn1c(=O)n(C(C)C)c(=O)c2c1ncn2CCCCC(O)CO", "note": "(stereo not shown) [Compound 2]", "inhibition in vivo at 10 mg/kg": 56},
      {"smiles": "CC(=O)CCCCn1c(=O)c2c(ncn2CCCCC(O)CO)n(C)c1=O", "note": "(stereo not shown) [Compound 11, 7-(5,6-dihydroxyhexyl)-3-methyl-1-(5-oxohexyl)-xanthine]", "inhibition in vivo at 10 mg/kg": 47.4}
    ]},
    {"test_system": "ethanol-induced gastric ulcer in rats", "test": "Protective effect on ethanol-induced gastric ulcer in rats", "format": "in vivo, male Sprague-Dawley rats", "settings": "10 mg/kg po, mean ± S.E., series with control (distilled water) 111.6 ± 10.4 mm", "experimental": "(§3) 1.2 Protective Effect on Ethanol-Induced Gastric Ulcer in Rats\n(§4) Male Sprague-Dawley rats weighing 250-300 g were used in groups of 5-24. After fasting overnight, the animals were given orally the compounds. Thirty minutes later they received absolute ethanol (1 ml/body) orally and were sacrificed after 60 minutes. The stomach was removed and examined for erosions. The ulcer index was obtained in the same way as under 1.1.", "units": {"Ulcer index": "mm"}, "values": [
      {"smiles": "CCn1c(=O)n(C(C)C)c(=O)c2c1ncn2CCCCC(O)CO", "note": "(stereo not shown) [Compound 2]", "Ulcer index": "6.7 ± 2.8"}
    ]},
    {"test_system": "ethanol-induced gastric ulcer in rats", "test": "Protective effect on ethanol-induced gastric ulcer in rats", "format": "in vivo, male Sprague-Dawley rats", "settings": "10 mg/kg po, mean ± S.E., series with control (distilled water) 164.7 ± 19.4 mm", "experimental": "as §3, §4", "units": {"Ulcer index": "mm"}, "values": [
      {"smiles": "CCCCn1c(=O)c2c(ncn2CCCCC(O)CO)n(CC)c1=O", "note": "(stereo not shown) [Compound 3]", "Ulcer index": "5.3 ± 3.3"},
      {"smiles": "CCCn1c(=O)c2c(ncn2CCCCC(O)CO)n(CC)c1=O", "note": "(stereo not shown) [Compound 1]", "Ulcer index": "6.7 ± 2.1"}
    ]},
    {"test_system": "ethanol-induced gastric ulcer in rats", "test": "Protective effect on ethanol-induced gastric ulcer in rats", "format": "in vivo, male Sprague-Dawley rats", "settings": "Rattus norvegicus, 10 mg/kg po, series with control 111.6 ± 10.4 mm", "experimental": "as §3, §4", "units": {"inhibition in vivo at 10 mg/kg": "%"}, "values": [
      {"smiles": "CCn1c(=O)n(C(C)C)c(=O)c2c1ncn2CCCCC(O)CO", "note": "(stereo not shown) [Compound 2]", "inhibition in vivo at 10 mg/kg": 94}
    ]},
    {"test_system": "ethanol-induced gastric ulcer in rats", "test": "Protective effect on ethanol-induced gastric ulcer in rats", "format": "in vivo, male Sprague-Dawley rats", "settings": "Rattus norvegicus, 10 mg/kg po, series with control 164.7 ± 19.4 mm", "experimental": "as §3, §4", "units": {"inhibition in vivo at 10 mg/kg": "%"}, "values": [
      {"smiles": "CCCCn1c(=O)c2c(ncn2CCCCC(O)CO)n(CC)c1=O", "note": "(stereo not shown) [Compound 3]", "inhibition in vivo at 10 mg/kg": 96.8},
      {"smiles": "CCCn1c(=O)c2c(ncn2CCCCC(O)CO)n(CC)c1=O", "note": "(stereo not shown) [Compound 1]", "inhibition in vivo at 10 mg/kg": 95.8}
    ]},
    {"test_system": "not listed separately", "test": "in vivo", "settings": "mouse, in vivo, ip; intraperitoneal administration, mice, 7 days (footnote b)", "experimental": "(§5) LD50 values of the compounds of this invention were determined after intravenous injection or intraperitoneal administration to mice for acute toxicity test. The studies were carried out using male and female NMRI mice (n=3/group) having a body weight between 19-21 g.", "units": {"LD50 at 168 h": "mg/kg"}, "values": [
      {"smiles": "CCn1c(=O)c2c(ncn2CCCCC(C)=O)n(C)c1=O", "note": "[Compound 22]", "LD50 at 168 h": "200 to 400"},
      {"smiles": "C=CCn1c(=O)c2c(ncn2CCCCC(C)O)n(C)c1=O", "note": "(stereo not shown) [Compound 18, 1-Allyl-7-(5-hydroxyhexyl)-3-methylxanthine]", "LD50 at 168 h": "250 to 500"}
    ]},
    {"test_system": "not listed separately", "test": "in vivo", "settings": "mouse, in vivo; intravenous, mice, n=3/group, 7 days", "experimental": "as §5", "units": {"LD50 at 168 h": "mg/kg"}, "values": [
      {"smiles": "CC(=O)Cn1cnc2c1c(=O)n(CCCCC(C)O)c(=O)n2C", "note": "(stereo not shown) [Compound 23, 1-(5-Hydroxyhexyl)-3-methyl-7-(2-oxopropyl)-xanthine]", "LD50 at 168 h": "> 200"},
      {"smiles": "CC(=O)Cn1c(=O)c2c(ncn2CCCCC(C)O)n(C)c1=O", "note": "(stereo not shown) [Compound 19, 7-(5-Hydroxyhexyl)-3-methyl-1-(2-oxopropyl)-xanthine]", "LD50 at 168 h": "> 200"},
      {"smiles": "CCCn1c(=O)n(CCCCC(C)=O)c(=O)c2c1ncn2CCCCC(O)CO", "note": "(stereo not shown) [Compound 9, 7-(5,6-Dihydroxyhexyl)-1-(5-oxohexyl)-3-n-propylxanthine]", "LD50 at 168 h": "> 200"},
      {"smiles": "CC(=O)CCCCn1c(=O)c2c(ncn2CCCCC(O)CO)n(C)c1=O", "note": "(stereo not shown) [Compound 11, 7-(5,6-dihydroxyhexyl)-3-methyl-1-(5-oxohexyl)-xanthine]", "LD50 at 168 h": "> 200"},
      {"smiles": "CC(=O)CCCCn1cnc2c1c(=O)n(CC(C)=O)c(=O)n2C", "note": "[Compound 24, 3-Methyl-7-(5-oxohexyl)-1-(2-oxopropyl)-xanthine]", "LD50 at 168 h": "> 200"},
      {"smiles": "CC(=O)CCCCn1c(=O)c2c(ncn2CC(C)O)n(C)c1=O", "note": "(stereo not shown) [Compound 20]", "LD50 at 168 h": "> 200"}
    ]},
    {"test_system": "not listed separately", "test": "in vivo", "settings": "mouse, in vivo; intravenous, mice; method of LitchfieldWilcoxon using 10 mice/dose (footnote a)", "experimental": "as §5", "units": {"LD50 at 168 h": "mg/kg"}, "values": [
      {"smiles": "CCCn1c(=O)c2c(ncn2CCCCC(C)O)n(C)c1=O", "note": "(stereo not shown) [Compound 15]", "LD50 at 168 h": 123}
    ]},
    {"test_system": "mice", "test": "in vivo", "settings": "acute", "experimental": "as §5", "values": [
      {"smiles": "CCCn1c(=O)c2c(ncn2CCCCC(O)CO)n(CC)c1=O", "note": "(stereo not shown) [Compound 1]", "toxicity (in words)": "low toxicity"}
    ]}
  ]
}
